Among the data in patent US20190085024A1, “Alpha-Ketoamide Inhibitors Of Cysteine Proteases” (Phelix Therapeutics, priority 2017, published 2019) are Ki and IC50 values, retold here.

Each structure is given as a SMILES string. *1 amine or outer side, *2 acyl side, *3 side chain or, on linkers, in order; H or OH if unused. Where a SMILES comes first, the peptide text is derived from it. [ ]: non-standard residue; d: D form. The star is where a group is joined. ξ: configuration not given here. ξβ3hPhe(2-oxo) = O=C(C(=O)[*:2])C(Cc1ccccc1)N[*:1]; Cbz = O=C(OCc1ccccc1)* Where only a bound is given, the exact number is not on record here.

The target in experiment [1] is Cathepsin L (Homo sapiens, UniProt P07711). Briefly: Cathepsin L enzyme assay. The note with it: Ki by Morrison equation; pH 5.5, substrate Z-Phe-Arg-Amc; read-out: Cat L. It counts as biochemical. The source says: Two wells contained DMSO only for controls.
Cathepsin L, sequence (P07711 114-333, species assumed): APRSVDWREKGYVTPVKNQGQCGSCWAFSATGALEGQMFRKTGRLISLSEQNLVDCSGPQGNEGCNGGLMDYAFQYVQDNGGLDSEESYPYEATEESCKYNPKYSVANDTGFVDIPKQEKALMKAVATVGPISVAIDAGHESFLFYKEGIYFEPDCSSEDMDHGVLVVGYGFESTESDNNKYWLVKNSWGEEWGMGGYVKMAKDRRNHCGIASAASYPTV
Velocity was converted to μM/sec.

The target in experiment [2] is Cathepsin B (Homo sapiens, UniProt P07858). Briefly: Cathepsin B enzyme assay. The note with it: Cat B (μM), Ki by Morrison equation; pH 6.0, substrate Z-Phe-Arg-Amc.
In experiment [3] the test system is EBOV WT (Ebola Wild Type). Briefly: microbe, parasite or virus in culture. It counts as cell-based. The note with it: Zaire ebolavirus, read-out: EBOV WT (μM) (Ebola Wild Type).
Experiment [4] has as its target Calpain. Put plainly: Calpain enzyme assay. It counts as biochemical. The note with it: Ki by Morrison equation; pH 7.5, 5 mM CaCl2.
Experiment [5] deals with Cat S (Homo sapiens, UniProt P25774). Put plainly: Cat S inhibition. It counts as biochemical.
Cat S, sequence (P25774 115-331): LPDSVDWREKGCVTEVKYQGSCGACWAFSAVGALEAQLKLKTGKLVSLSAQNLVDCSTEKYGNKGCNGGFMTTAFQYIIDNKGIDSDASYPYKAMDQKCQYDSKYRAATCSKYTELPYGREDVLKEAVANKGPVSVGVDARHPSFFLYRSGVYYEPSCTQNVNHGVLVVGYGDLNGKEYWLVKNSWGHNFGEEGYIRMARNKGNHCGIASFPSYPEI
Experiment [6] has as its system MERS WT. Put plainly: microbe, parasite or virus in culture. It counts as cell-based. The conditions noted are these: Middle East respiratory syndrome-related coronavirus, read-out: MERS WT (μM).

As to `C=CCOCC(NC(=O)C(=O)C(COCC=C)NC(=O)C(CC(C)C)NC(=O)OCc1ccccc1)C(=O)NC(Cc1ccc2ccccc2c1)C(N)=O` (stereo not shown) [PHELIX228, benzyl (1-((1-(allyloxy)-4-((3-(allyloxy)-1-((1-amino-3-(naphthalen-2-yl)-1-oxopropan-2-yl)amino)-1-oxopropan-2-yl)amino)-3,4-dioxobutan-2-yl)amino)-4-methyl-1-oxopentan-2-yl)carbamate], the Ki in experiment [1] worked out at 0.08 nM; in experiment [2] it was 0.276 µM; in experiment [4] it was 25.3 nM. For the same compound, the IC50 in experiment [3] was 3.02 µM.

For the compound `CC(C)CC(=O)NC(Cc1ccccc1)C(=O)NC(C)C(=O)C(=O)NC(Cc1ccccc1)C(=O)NC(C)(C)C(N)=O` (stereo not shown) [PHELIX235, N-(1-((1-amino-2-methyl-1-oxopropan-2-yl)amino)-1-oxo-3-phenylpropan-2-yl)-3-(2-(3-methylbutanamido)-3-phenylpropanamido)-2-oxobutanamide], the Ki in experiment [1] is 236 nM; in experiment [2] it was 0.644 µM; in experiment [4] it was greater than 10000 nM; in experiment [5], 28.9 nM.

Consider `CC(C)CC(NC(=O)OCc1ccccc1)C(=O)NC(C)C(=O)C(=O)N1CCC(C(=O)NC(Cc2ccccc2)C(N)=O)CC1` (stereo not shown) [PHELIX186, benzyl (1-((4-(4-((1-amino-1-oxo-3-phenylpropan-2-yl)carbamoyl)piperidin-1-yl)-3,4-dioxobutan-2-yl)amino)-4-methyl-1-oxopentan-2-yl)carbamate], for which the Ki in experiment [1] is 4320 nM; in experiment [2] it was 60 µM; in experiment [4], 18100 nM. Moreover, the figures for the IC50 in experiment [6] and in experiment [3] were greater than 10 µM and 57.5 µM, respectively.

With `CCCCC(NC(=O)C(=O)C(C)NC(=O)C(Cc1ccccc1)NC(=O)Cc1ccccc1)C(=O)NC(C)(C)C(N)=O` (stereo not shown) [PHELIX242, N-(1-amino-2-methyl-1-oxopropan-2-yl)-2-(2-oxo-3-(3-phenyl-2-(2-phenylacetamido)propanamido)butanamido)hexanamide], the Ki in experiment [1] is 7520 nM; in experiment [2], greater than 10 µM; in experiment [4] it was greater than 10000 nM; in experiment [5], 555 nM.

For `CC(NC(=O)C(Cc1ccccc1)NC(=O)Cc1ccccc1)C(=O)C(=O)NC(Cc1cccc(F)c1)C(=O)NC(Cc1ccc(-c2ccccc2)cc1)C(N)=O` (stereo not shown) [PHELIX266, N-(1-((3-([1,1′-biphenyl]-4-yl)-1-amino-1-oxopropan-2-yl)amino)-3-(3-fluorophenyl)-1-oxopropan-2-yl)-2-oxo-3-(3-phenyl-2-(2-phenylacetamido)propanamido)butanamide], the Ki is 0.14 nM in experiment [1], greater than 10 µM in experiment [2] and greater than 10000 nM in experiment [4]. In experiment [6], the IC50 was found to be 0.78 µM.

For the compound `CC(C)CC(NC(=O)Cc1ccccc1)C(=O)NC(C)C(=O)C(=O)NC(C)C(=O)NC(C)(C)C(N)=O` (stereo not shown) [PHELIX183, N-(4-((1-((1-amino-2-methyl-1-oxopropan-2-yl)amino)-1-oxopropan-2-yl)amino)-3,4-dioxobutan-2-yl)-4-methyl-2-(2-phenylacetamido)pentanamide], the Ki was 195 nM in experiment [1], 7.74 µM in experiment [2] and 153 nM in experiment [4]. The results for the IC50 in experiment [6] and in experiment [3] were 407 µM and 29.1 µM, respectively.

For the compound `CC(C)CC(NC(=O)OCc1ccccc1)C(=O)NC(Cc1ccccc1)C(=O)C(=O)NCC(=O)NC(Cc1ccc2ccccc2c1)C(N)=O` (stereo not shown) [PHELIX256, benzyl (1-((4-((2-((1-amino-3-(naphthalen-2-yl)-1-oxopropan-2-yl)amino)-2-oxoethyl)amino)-3,4-dioxo-1-phenylbutan-2-yl)amino)-4-methyl-1-oxopentan-2-yl)carbamate], the Ki in experiment [1] was found to be 1.47 nM; in experiment [2], 0.24 µM; in experiment [4], 12.2 nM. For the same compound, the IC50 in experiment [6] worked out at 4.97 µM.

As for `CC(NC(=O)C(Cc1ccccc1)NC(=O)Cc1ccccc1)C(=O)C(=O)NC(CC1CC1)C(=O)NC(Cc1ccc(-c2ccccc2)cc1)C(N)=O` (stereo not shown) [PHELIX260, N-(1-((3-([1,1′-biphenyl]-4-yl)-1-amino-1-oxopropan-2-yl)amino)-3-cyclopropyl-1-oxopropan-2-yl)-2-oxo-3-(3-phenyl-2-(2-phenylacetamido)propanamido)butanamide], the Ki in experiment [1] is 0.27 nM; in experiment [2] it was 0.0178 µM; in experiment [4] it was greater than 10000 nM. Besides, the IC50 in experiment [6] came to 1.81 µM.

As for `C=CCOC(=O)NCCCCC(NC(=O)C(=O)C(NC(=O)C(CC(C)C)NC(=O)C(Cc1ccccc1)NC(=O)OCc1ccccc1)C(C)CC)C(N)=O` (stereo not shown) [PHELIX269, benzyl (15-(sec-butyl)-11-carbamoyl-18-isobutyl-5,13,14,17,20-pentaoxo-22-phenyl-4-oxa-6,12,16,19-tetraazadocos-1-en-21-yl)carbamate], the Ki in experiment [1] was 4.13 nM; in experiment [2] it was 0.763 µM; in experiment [4] it was 4.34 nM. Moreover, in experiment [6], the IC50 was greater than 30 µM.

As for `CC(NC(=O)C(Cc1ccccc1)NC(=O)Cc1ccccc1)C(=O)C(=O)NC(Cc1cccc(C(F)(F)F)c1)C(=O)NC(Cc1ccc(-c2ccccc2)cc1)C(N)=O` (stereo not shown) [PHELIX264, N-(1-((3-([1,1′-biphenyl]-4-yl)-1-amino-1-oxopropan-2-yl)amino)-1-oxo-3-(3-(trifluoromethyl)phenyl)propan-2-yl)-2-oxo-3-(3-phenyl-2-(2-phenylacetmido)propanamido)butanamide], the Ki was 1.91 nM in experiment [1], greater than 10 µM in experiment [2] and greater than 10000 nM in experiment [4]. In addition, the IC50 in experiment [6] came to 2.68 µM.

In the case of `CC(C)CC(NC(=O)OCc1ccccc1)C(=O)NC(Cc1ccccc1)C(=O)C(=O)NC(C)C(=O)NC(CCC(=O)O)C(=O)NC(CCCNC(=N)N)C(N)=O` (stereo not drawn) [PHELIX252, 15-((1-amino-5-guanidino-1-oxopentan-2-yl)carbamoyl)-8-benzyl-5-isobutyl-12-methyl-3,6,9,10,13-pentaoxo-1-phenyl-2-oxa-4,7,11,14-tetraazaoctadecan-18-oic acid] (Cbz-L[ξβ3hPhe(2-oxo)]AER-NH2; configuration not given here), the Ki was 5.03 nM in experiment [1], greater than 10 µM in experiment [2] and 17 nM in experiment [4]. Also, the IC50 in experiment [6] was greater than 30 µM.

As for `CC(NC(=O)C(Cc1ccccc1)NC(=O)Cc1ccccc1)C(=O)C(=O)NC(Cc1ccccc1F)C(=O)NC(Cc1ccc(-c2ccccc2)cc1)C(N)=O` (stereo not shown) [PHELIX263, N-(1-((3-([1,1′-biphenyl]-4-yl)-1-amino-1-oxopropan-2-yl)amino)-3-(2-fluorophenyl)-1-oxopropan-2-yl)-2-oxo-3-(3-phenyl-2-(2-phenylacetamido)propanamido)butanamide], the results for the Ki in experiment [1], in experiment [2] and in experiment [4] were 0.06 nM, 0.6 µM and greater than 10000 nM, respectively. In experiment [6], the IC50 was 0.99 µM.

With `CC(NC(=O)C(Cc1ccccc1)NC(=O)Cc1ccccc1)C(=O)C(=O)NC(Cc1ccc(-c2ccccc2)cc1)C(=O)NC(C)(C)C(N)=O` (stereo not shown) [PHELIX241, N-(3-([1,1′-biphenyl]-4-yl)-1-((1-amino-2-methyl-1-oxopropan-2-yl)amino)-1-oxopropan-2-yl)-2-oxo-3-(3-phenyl-2-(2-phenylacetamido)propanamido)butanamide], the Ki in experiment [1] was 1360 nM; in experiment [2], greater than 10 µM; in experiment [4], greater than 10000 nM; in experiment [5], 2740 nM.

For `CCCCC(=O)NC(Cc1ccccc1)C(=O)NC(C)C(=O)C(=O)NC(Cc1ccccc1)C(=O)NC(C)(C)C(N)=O` (stereo not shown) [PHELIX236, N-(1-((4-((1-((1-amino-2-methyl-1-oxopropan-2-yl)amino)-1-oxo-3-phenylpropan-2-yl)amino)-3,4-dioxobutan-2-yl)amino)-1-oxo-3-phenylpropan-2-yl)pentanamide], the Ki was 1720 nM in experiment [1], greater than 10 µM in experiment [2], greater than 10000 nM in experiment [4] and 260 nM in experiment [5].

For `CC(C)CC(NC(=O)Cc1ccc(-c2ccccc2)cc1)C(=O)NC(C)C(=O)C(=O)NCC(=O)NC(Cc1ccc2ccccc2c1)C(N)=O` (stereo not shown) [PHELIX253, 2-(2-([1,1′-biphenyl]-4-yl)acetamido)-N-(4-((2-((1-amino-3-(naphthalen-2-yl)-1-oxopropan-2-yl)amino)-2-oxoethyl)amino)-3,4-dioxobutan-2-yl)-4-methylpentanamide], the Ki in experiment [1] came to 21.5 nM; in experiment [2] it was 1.17 µM; in experiment [4], 21.4 nM. Moreover, the IC50 in experiment [6] is greater than 30 µM.

Turning to `CC(NC(=O)C(Cc1ccccc1)NC(=O)Cc1ccccc1)C(=O)C(=O)NC(CC1CCCCC1)C(=O)NC(Cc1ccc(-c2ccccc2)cc1)C(N)=O` (stereo not shown) [PHELIX259, N-(1-((3-([1,1′-biphenyl]-4-yl)-1-amino-1-oxopropan-2-yl)amino)-3-cyclohexyl-1-oxopropan-2-yl)-2-oxo-3-(3-phenyl-2-(2-phenylacetamido)propanamido)butanamide], the Ki in experiment [1] was 1.93 nM; in experiment [2], greater than 10 µM; in experiment [4] it was greater than 10000 nM. Moreover, the IC50 in experiment [6] was 1.1 µM.

Consider `CC(C)C[C@H](NC(=O)C(c1ccccc1)c1ccccc1)C(=O)NC(C)C(=O)C(=O)NCC(=O)N[C@@H](Cc1ccc2ccccc2c1)C(N)=O` (stereo partly shown) [PHELIX251, N-(4-((2-((1-amino-3-(naphthalen-2-yl)-1-oxopropan-2-yl)amino)-2-oxoethyl)amino)-3,4-dioxobutan-2-yl)-2-(2,2-diphenylacetamido)-4-methylpentanamide], for which the Ki came out at 1.4 nM in experiment [1], 0.106 µM in experiment [2] and 25 nM in experiment [4]. Further, in experiment [6], the IC50 is greater than 30 µM.
